Where a name gives a salt, the structure may show the parent alone. Blank lines part the entries; values can stand above or below the compound they belong to. Residues, ends and D or L forms follow the SMILES beside them. *: point of attachment. Cbz = O=C(OCc1ccccc1)*
What was measured:
EML4-ALK = EML4-ALK (Homo sapiens, UniProt Q9HC35+Q9UM73); assay: EML4-ALK degradation in NCI-H2228 cells; assay type: cell-based; conditions: for effect of pre-treatment on EML4-ALK degradation induced by 819: NCI-H2228 cells
CDK9 [1] = target: T1, CDK9 (Homo sapiens, UniProt P50750); assay: CDK9 degradation in MOLT4 cells; assay type: cell-based; conditions: for effect of pre-treatment on CDK9 degradation by 955: pre-treatment before 955
LNCaP = assay: Viability; assay type: cell-based, human
22RV1 = assay: Viability; assay type: cell-based, human
DU145 = assay: Viability; assay type: cell-based, human
PC3 = assay: Viability; assay type: cell-based, human
[2] = target: CDK9:955:KEAP1 ternary complex (Homo sapiens, UniProt P50750+Q14145); assay: NanoBRET ternary complex formation assay in live 293T cells; assay type: cell-based; conditions: HiBit-CDK9 and Halo-KEAP1, 6 h
H1299 lung cancer cells = assay: Cell killing in KEAP1 siRNA- vs control siRNA-treated H1299 cells; assay type: cell-based, human; conditions: 24 h treatment
[3] = system: LNCaP prostate cancer cells; assay: Cell killing in KEAP1 siRNA- vs control siRNA-treated LNCaP cells; assay type: cell-based, human; conditions: 24 h treatment
MOLT4 cells = assay: PARP cleavage; assay type: cell-based, human; conditions: compared with SNS-032
CDK10 [4] = target: T2, CDK10 (Homo sapiens, UniProt Q15131); assay: CDK10 degradation in MOLT4 cells; assay type: cell-based
[5] = system: CDK9-dependent transcription; assay: RNA-seq in MOLT4 cells; assay type: cell-based, human; conditions: 6 h treatment, compared with SNS-032
CDK9 [6] = target: T1, CDK9; assay: TMT-based global proteomics in MOLT4 cells, CDK9; assay type: cell-based
c-Myc and MCL-1 [7] = assay: c-Myc and MCL-1 expression in LNCaP cells; assay type: cell-based, human
V5-TurboID-CDK9 = V5-TurboID-CDK9 (Homo sapiens, UniProt P50750+Q14145); assay: TurboID-bait assay in 293T cells; assay type: cell-based
c-Myc and MCL-1 [8] = assay: c-Myc and MCL-1 expression in MOLT4 cells; assay type: cell-based, human; conditions: mRNA and protein
CDK9 [9] = target: T1, CDK9; assay: CDK9 degradation in KEAP1 knockout / rescued H1299 cells; assay type: cell-based
CDK9 [10] = target: T1, CDK9; assay: CDK9 degradation in LNCaP cells; assay type: cell-based
purified KEAP1 protein = purified KEAP1 protein (Homo sapiens, UniProt Q14145); assay: Gel-based competitive ABPP assay with IA-alkyne; assay type: binding; conditions: serially diluted compound, purified His-KEAP1
CDK9 [11] = conditions: cited from earlier work
CDK9 [12] = conditions: read-out: IC50 CDK9; cited from earlier work
CDK10 [13] = target: T2, CDK10; conditions: MOLT4 lysates; cited from earlier work
[14] = PL or SNS-032 alone or their combination (Figure 1E)
[15] = 955 versus 336 with reduced Michael acceptors (Figure 2H)

T2 sequence (Q15131 whole entry): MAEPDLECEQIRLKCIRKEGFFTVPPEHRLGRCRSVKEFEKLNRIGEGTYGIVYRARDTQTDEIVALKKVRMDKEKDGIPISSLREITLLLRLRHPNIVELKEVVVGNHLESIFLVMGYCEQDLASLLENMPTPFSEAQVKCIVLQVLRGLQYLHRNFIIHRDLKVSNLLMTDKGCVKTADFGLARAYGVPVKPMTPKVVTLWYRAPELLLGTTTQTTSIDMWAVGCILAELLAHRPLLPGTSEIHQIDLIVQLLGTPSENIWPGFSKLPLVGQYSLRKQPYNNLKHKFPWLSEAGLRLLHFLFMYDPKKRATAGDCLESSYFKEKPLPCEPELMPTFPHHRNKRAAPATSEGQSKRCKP
T1 sequence (P50750 whole entry): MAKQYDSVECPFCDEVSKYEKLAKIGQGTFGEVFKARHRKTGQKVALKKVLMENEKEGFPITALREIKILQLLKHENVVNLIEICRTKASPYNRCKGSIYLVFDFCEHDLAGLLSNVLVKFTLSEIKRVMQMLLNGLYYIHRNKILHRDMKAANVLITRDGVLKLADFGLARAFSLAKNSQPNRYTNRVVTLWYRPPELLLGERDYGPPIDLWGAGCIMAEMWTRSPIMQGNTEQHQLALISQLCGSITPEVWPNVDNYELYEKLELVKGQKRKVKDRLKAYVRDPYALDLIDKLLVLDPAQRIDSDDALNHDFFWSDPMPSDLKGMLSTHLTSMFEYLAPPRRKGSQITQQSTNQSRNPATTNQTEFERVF
V5-TurboID-CDK9, sequence (P50750 whole entry): as above
V5-TurboID-CDK9, sequence (Q14145 whole entry): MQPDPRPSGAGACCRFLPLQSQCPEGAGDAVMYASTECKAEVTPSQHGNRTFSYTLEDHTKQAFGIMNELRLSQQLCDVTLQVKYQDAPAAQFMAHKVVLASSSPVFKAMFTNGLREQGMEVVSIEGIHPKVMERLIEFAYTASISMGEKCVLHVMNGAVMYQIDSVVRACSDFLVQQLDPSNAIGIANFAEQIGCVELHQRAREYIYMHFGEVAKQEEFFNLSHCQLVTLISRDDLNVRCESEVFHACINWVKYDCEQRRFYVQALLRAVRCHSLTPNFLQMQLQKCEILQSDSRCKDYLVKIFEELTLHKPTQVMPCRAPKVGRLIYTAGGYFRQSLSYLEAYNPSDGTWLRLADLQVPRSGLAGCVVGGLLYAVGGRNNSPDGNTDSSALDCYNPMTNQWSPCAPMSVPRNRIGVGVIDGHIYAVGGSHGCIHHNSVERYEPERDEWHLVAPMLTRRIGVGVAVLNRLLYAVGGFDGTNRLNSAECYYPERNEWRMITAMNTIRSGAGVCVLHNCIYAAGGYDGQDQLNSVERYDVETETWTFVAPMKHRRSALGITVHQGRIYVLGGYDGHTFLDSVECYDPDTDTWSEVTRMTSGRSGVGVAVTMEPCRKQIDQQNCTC
V5-TurboID-CDK9, sequence (O60563 whole entry partner): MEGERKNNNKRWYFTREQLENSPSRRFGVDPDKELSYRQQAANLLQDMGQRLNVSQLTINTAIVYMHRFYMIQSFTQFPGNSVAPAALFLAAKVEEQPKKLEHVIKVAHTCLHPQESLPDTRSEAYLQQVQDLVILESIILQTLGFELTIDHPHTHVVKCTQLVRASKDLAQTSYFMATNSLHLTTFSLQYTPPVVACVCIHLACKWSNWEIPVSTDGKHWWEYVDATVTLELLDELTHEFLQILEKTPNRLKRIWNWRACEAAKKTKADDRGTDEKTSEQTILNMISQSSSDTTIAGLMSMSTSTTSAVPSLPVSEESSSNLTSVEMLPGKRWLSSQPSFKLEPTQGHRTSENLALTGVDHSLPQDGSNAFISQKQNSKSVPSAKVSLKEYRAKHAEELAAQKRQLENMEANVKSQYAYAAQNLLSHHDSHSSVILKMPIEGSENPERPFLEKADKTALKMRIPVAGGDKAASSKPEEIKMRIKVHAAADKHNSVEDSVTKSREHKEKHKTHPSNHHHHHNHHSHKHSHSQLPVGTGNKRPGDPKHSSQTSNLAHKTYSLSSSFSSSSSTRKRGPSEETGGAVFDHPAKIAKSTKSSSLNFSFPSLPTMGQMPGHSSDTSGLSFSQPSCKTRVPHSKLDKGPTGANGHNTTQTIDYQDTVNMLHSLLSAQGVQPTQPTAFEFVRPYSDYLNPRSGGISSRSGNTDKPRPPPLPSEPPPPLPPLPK
CDK9:955:KEAP1 ternary complex, sequence (P50750 whole entry): as the sequence (P50750 whole entry) above
CDK9:955:KEAP1 ternary complex, sequence (Q14145 whole entry): as the sequence (Q14145 whole entry) above
CDK9:955:KEAP1 ternary complex, sequence (O60563 whole entry partner): as the sequence (O60563 whole entry partner) above
purified KEAP1 protein, sequence (Q14145 whole entry): as the sequence (Q14145 whole entry) above

SMILES: COc1cc(/C=C/C(=O)N2CCC=CC2=O)cc(OC)c1OCC(=O)N1CCC(c2cc(OC(C)C)c(Nc3ncc(Cl)c(Nc4ccccc4S(=O)(=O)C(C)C)n3)cc2C)CC1 [compound 819, (E)-1-(3-(4-(2-(4-(4-((5-chloro-4-((2-(isopropylsulfonyl)phenyl)amino)pyrimidin-2-yl)amino)-5-isopropoxy-2-methylphenyl)piperidin-1-yl)-2-oxoethoxy)-3,5-dimethoxyphenyl)acryloyl)-5,6-dihydropyridin-2(1H)-one]
EML4-ALK degradation (EML4-ALK; NCI-H2228 NSCLC cells): can degrade EML4-ALK in a concentration-dependent manner

effect of pre-treatment on CDK9 degradation by 955 (CDK9 [1]): blocks
SMILES: CCOC(=O)c1ccc(N2NC(=O)/C(=C/c3ccc([N+](=O)[O-])o3)C2=O)cc1 [PYR-41]

effect of pre-treatment on CDK9 degradation by 955 (CDK9 [1]): blocks
SMILES: COC(=O)[C@]12CCC(C)(C)C[C@H]1[C@H]1C(=O)C=C3[C@@]4(C)C=C(C#N)C(=O)C(C)(C)[C@@H]4CC[C@@]3(C)[C@]1(C)CC2 [CDDO-ME]

SMILES: COc1cc(/C=C/C(=O)N2CCC=CC2=O)cc(OC)c1OC [PL, (E)-1-(3-(3,4,5-trimethoxyphenyl)acryloyl)-5,6-dihydropyridin-2(1H)-one]
anti-proliferative effect (LNCaP; within 3 μM): no anti-proliferative effect
CDK9 degradation (CDK9 [1]; [14]): none of these treatments degraded CDK9
effect of pre-treatment on CDK9 degradation by 955 (CDK9 [1]): blocks
anti-proliferative effect (22RV1; 22RV1, within 3 μM): no anti-proliferative effect
anti-proliferative effect (DU145; DU145, within 3 μM): no anti-proliferative effect
anti-proliferative effect (PC3; PC3, within 3 μM): no anti-proliferative effect

effect of pre-treatment on CDK9 degradation by 955 (CDK9 [1]): blocks
effect of pre-treatment on EML4-ALK degradation induced by 819 (EML4-ALK): blocks
SMILES: COC(=O)/C=C/C(=O)OC [DMF, dimethyl fumarate]

effect of pre-treatment on CDK9 degradation by 955 (CDK9 [1]): blocks
SMILES: NS(=O)(=O)OC[C@H]1C[C@@H](Nc2ccnc3cc(-c4cccc(SC(F)(F)F)c4)nn23)[C@H](O)[C@@H]1O [TAK-243]

effect of pre-treatment on CDK9 degradation by 955 (CDK9 [1]): blocks
SMILES: CC1(C)CC[C@]2(C(=O)n3ccnc3)CC[C@]3(C)[C@H](C(=O)C=C4[C@@]5(C)C=C(C#N)C(=O)C(C)(C)[C@@H]5CC[C@]43C)[C@@H]2C1 [CDDO-IM]

formation of CDK9:KEAP1 ternary complex (nanoBRET) [2]: negligible
CDK9 degradation (CDK9 [1]; [15]): does not induce CDK9 degradation
SMILES: COc1cc(CCC(=O)N2CCCCC2=O)cc(OC)c1OCCN1CCN(C(=O)CN2CCC(C(=O)Nc3ncc(SCc4ncc(C(C)(C)C)o4)s3)CC2)CC1 [compound 336, N-(5-(((5-(tert-butyl)oxazol-2-yl)methyl)thio)thiazol-2-yl)-1-(2-(4-(2-(2,6-dimethoxy-4-(3-oxo-3-(2-oxopiperidin-1-yl)propyl)phenoxy)ethyl)piperazin-1-yl)-2-oxoethyl)piperidine-4-carboxamide]
effect of KEAP1 knockdown on cytotoxicity (H1299 lung cancer cells): no significant effect
effect of KEAP1 knockdown on cytotoxicity [3]: no significant effect

effect of pre-treatment on CDK9 degradation by 955 (CDK9 [1]): does not block
SMILES: CCN(CC)CCCC(C)Nc1ccnc2cc(Cl)ccc12 (stereo not drawn) [chloroquine]

SMILES: CO/C1=C\C(C)=C\[C@@H](C)[C@@H](O)[C@@H](C)C/C(C)=C/C=C/[C@H](OC)[C@@H]([C@@H](C)[C@@H](O)[C@H](C)[C@@]2(O)C[C@@H](O)[C@H](C)[C@@H](C(C)C)O2)OC1=O [Baf-A1]
effect of pre-treatment on CDK9 degradation by 955 (CDK9 [1]): does not block

effect of pre-treatment on CDK9 degradation by 955 (CDK9 [1]): blocks
SMILES: CC(C)C[C@H](NC(=O)[C@H](Cc1ccccc1)NC(=O)c1cnccn1)B(O)O [bortezomib]

CDK10 degradation (CDK10 [4]): potently degrade CDK10
time to almost complete degradation of CDK9 (CDK9 [1]; 0.1 μM, time course): ≤ 8 h
CDK9 degradation (CDK9 [1]; [15]): can induce CDK9 degradation
CDK9 degradation (CDK9 [1]; short-term treatment (6 h)): potently degrade CDK9
duration of CDK9 degradation after removal of compound from the culture (CDK9 [1]; washout): up to 18 h
CDK9 level (global proteome) (CDK9 [6]; 0.1 μM for 1 h and 6 h): significant reduction of CDK9
number of E3 ligases whose interaction with CDK9 is induced (V5-TurboID-CDK9; 293T cells expressing V5-TurboID-CDK9): 6 E3 ligases
CDK9 degradation after ectopic expression of Halo-tagged KEAP1 (CDK9 [9]; KEAP1 stable knockout H1299 cells, 0.1 μM, 6 h): rescued CDK9 degradation
CDK9 degradation after depleting KEAP1 (CDK9 [9]; siRNA and CRISPR-Cas9 knock down/out of KEAP1, H1299 cells): blocked
CDK9 degradation (CDK9 [10]): potently degraded CDK9
SMILES: COc1cc(/C=C/C(=O)N2CCC=CC2=O)cc(OC)c1OCCN1CCN(C(=O)CN2CCC(C(=O)Nc3ncc(SCc4ncc(C(C)(C)C)o4)s3)CC2)CC1 [compound 955, (E)-N-(5-(((5-(tert-butyl)oxazol-2-yl)methyl)thio)thiazol-2-yl)-1-(2-(4-(2-(2,6-dimethoxy-4-(3-oxo-3-(6-oxo-3,6-dihydropyridin-1(2H)-yl)prop-1-en-1-yl)phenoxy)ethyl)piperazin-1-yl)-2-oxoethyl)piperidine-4-carboxamide]
formation of CDK9:KEAP1 ternary complex (nanoBRET) [2]: can induce the formation of the CDK9:955:KEAP1 ternary complex in a dose-dependent manner
induction of PARP cleavage (MOLT4 cells): more potent in inducing PARP cleavage than SNS-032
downregulation of CDK9-dependent transcription [5]: more potent than SNS-032
c-Myc and MCL-1 expression (c-Myc and MCL-1 [7]): downregulated c-Myc and MCL-1
KEAP1 pulled down (immunoblot of TurboID-bait assay) (V5-TurboID-CDK9; 293T cells, in the presence of biotin, with vs without compound): significantly more KEAP1 can be pulled down
potency relative to SNS-032 in downregulation of c-Myc and MCL-1 expression (c-Myc and MCL-1 [8]): about 10 fold
effect of KEAP1 knockdown on cytotoxicity (H1299 lung cancer cells): attenuated the cytotoxicity
effect of KEAP1 knockdown on cytotoxicity [3]: attenuated the cytotoxicity
competition with IA-alkyne for binding to KEAP1 (purified KEAP1 protein): can compete with IA-alkyne to covalently bind to KEAP1 in a concentration-dependent manner

effect of pre-treatment on CDK9 degradation by 955 (CDK9 [1]): does not block
SMILES: CC(C)[C@H](NC(=O)c1ccc2ccccc2n1)C(=O)N[C@@H](CC(=O)O)C(=O)COc1c(F)cccc1F [QVD]

SMILES: CC(C)(C)c1cnc(CSc2cnc(NC(=O)C3CCN(CC(=O)NCCOCCOCCOCCNc4cccc5c4C(=O)N(C4CCC(=O)NC4=O)C5=O)CC3)s2)o1 (stereo not drawn) [THAL-SNS-032]
selectivity of degradation among SNS-032 targets (CDK9 [11]): could only degrade CDK9 but not other known SNS-032 targets

SMILES: CC(C)C[C@@H](C=O)NC(=O)[C@H](CC(C)C)NC(=O)[C@H](CC(C)C)NC(=O)OCc1ccccc1 [MG132] (Cbz-Leu-Leu-Leu-aldehyde)
effect of pre-treatment on CDK10 degradation induced by 955 (CDK10 [4]): blocks
effect of pre-treatment on CDK9 degradation by 955 (CDK9 [1]): blocks
effect of pre-treatment on EML4-ALK degradation induced by 819 (EML4-ALK): blocks

EC50 (LNCaP; Homo sapiens, 72 h, read-out: EC50 (antiproliferative)): > 100 nM
CDK10 degradation (CDK10 [4]): no effect
CDK9 degradation (CDK9 [1]; [14]): none of these treatments degraded CDK9
effect of pre-treatment on CDK9 degradation by 955 (CDK9 [1]): blocks
CDK9 degradation (CDK9 [1]; short-term treatment (6 h)): could not
CDK9 level (global proteome) (CDK9 [6]; 1 μM for 6 h): no significant effect
EC50 (22RV1; Homo sapiens, 22Rv1, 72 h, read-out: EC50 (antiproliferative)): > 100 nM
EC50 (DU145; Homo sapiens, DU-145, 72 h, read-out: EC50 (antiproliferative)): > 100 nM
EC50 (PC3; Homo sapiens, PC-3, 72 h, read-out: EC50 (antiproliferative)): > 100 nM
SMILES: CC(C)(C)c1cnc(CSc2cnc(NC(=O)C3CCNCC3)s2)o1 [SNS-032, N-(5-(((5-(tert-butyl)oxazol-2-yl)methyl)thio)thiazol-2-yl)piperidine-4-carboxamide]
effect of KEAP1 knockdown on cytotoxicity (H1299 lung cancer cells): no significant effect
effect of KEAP1 knockdown on cytotoxicity [3]: no significant effect
binding to CDK10 (CDK10 [13]): moderate binding

effect of pre-treatment on CDK10 degradation induced by 955 (CDK10 [4]): blocks
effect of pre-treatment on CDK9 degradation by 955 (CDK9 [1]): blocks
effect of pre-treatment on EML4-ALK degradation induced by 819 (EML4-ALK): blocks
SMILES: NS(=O)(=O)OC[C@@H]1C[C@@H](n2ccc3c(N[C@H]4CCc5ccccc54)ncnc32)C[C@@H]1O [MLN4924]
